Measured values from ChEMBL document CHEMBL4020828, “Design and Syntheses of Highly Potent Teixobactin Analogues against Staphylococcus aureus, Methicillin-Resistant Staphylococcus aureus (MRSA), and Vancomycin-Resistant Enterococci (VRE) in Vitro and in Vivo” (J Med Chem, 2018).
≈ marks a conversion by molar mass, not a printed value. Positions of bridges follow the written chain, without caps; N, C: chain ends. Non-standard residues stand in square brackets, D forms with d. Residues, ends and D or L forms follow the SMILES beside them. dNMeF = CN[C@H](Cc1ccccc1)C(=O)O

How the values were obtained:
[1] = system: Staphylococcus aureus; assay: Antibacterial activity against methicillin-resistant Staphylococcus aureus ATCC 33591 after 24 hrs; assay type: functional; conditions: ATCC 33591, 24 h
[2] = system: Staphylococcus saprophyticus; assay: Antibacterial activity against Staphylococcus saprophyticus ATCC BAA 750 after 24 hrs; assay type: functional; conditions: ATCC BAA 750, 24 h
[3] = system: Staphylococcus saprophyticus; assay: Antibacterial activity against Staphylococcus saprophyticus ATCC 15305 after 24 hrs; assay type: functional; conditions: ATCC 15305, 24 h
[4] = system: Staphylococcus saprophyticus; assay: Antibacterial activity against Staphylococcus saprophyticus ATCC 49453 after 24 hrs; assay type: functional; conditions: ATCC 49453, 24 h
[5] = system: Staphylococcus saprophyticus; assay: Antibacterial activity against Staphylococcus saprophyticus ATCC 49907 after 24 hrs; assay type: functional; conditions: ATCC 49907, 24 h
[6] = system: Enterococcus faecalis; assay: Antibacterial activity against vancomycin-resistant Enterococcus faecalis isolate 1001 after 24 hrs; assay type: functional; conditions: isolate 1001, 24 h
[7] = system: Enterococcus faecalis; assay: Antibacterial activity against vancomycin-resistant Enterococcus faecalis isolate 1002 after 24 hrs; assay type: functional; conditions: isolate 1002, 24 h
[8] = system: Enterococcus faecalis; assay: Antibacterial activity against vancomycin-resistant Enterococcus faecalis isolate 1004 after 24 hrs; assay type: functional; conditions: isolate 1004, 24 h
[9] = system: Enterococcus faecalis; assay: Antibacterial activity against vancomycin-resistant Enterococcus faecalis isolate 1008 after 24 hrs; assay type: functional; conditions: isolate 1008, 24 h
[10] = system: Enterococcus faecalis; assay: Antibacterial activity against vancomycin-resistant Enterococcus faecalis ATCC 700802 after 24 hrs; assay type: functional; conditions: ATCC 700802, 24 h
[11] = system: Enterococcus faecalis; assay: Antibacterial activity against vancomycin-resistant Enterococcus faecalis ATCC 29212 after 24 hrs; assay type: functional; conditions: ATCC 29212, 24 h
[12] = system: Staphylococcus aureus; assay: Antibacterial activity against methicillin-resistant Staphylococcus aureus ATCC 700699 after 24 hrs; assay type: functional; conditions: ATCC 700699, 24 h
[13] = system: Staphylococcus aureus; assay: Antibacterial activity against methicillin-resistant Staphylococcus aureus isolate 42412 after 24 hrs; assay type: functional; conditions: isolate 42412, 24 h
[14] = system: Staphylococcus aureus; assay: Antibacterial activity against methicillin-resistant Staphylococcus aureus isolate 21455 after 24 hrs; assay type: functional; conditions: isolate 21455, 24 h
[15] = system: Staphylococcus aureus; assay: Antibacterial activity against methicillin-resistant Staphylococcus aureus isolate 1003 after 24 hrs; assay type: functional; conditions: isolate 1003, 24 h
[16] = system: Staphylococcus aureus; assay: Antibacterial activity against Staphylococcus aureus ATCC 29213 after 24 hrs; assay type: functional; conditions: ATCC 29213, 24 h
[17] = system: Staphylococcus aureus; assay: Antibacterial activity against Staphylococcus aureus 4299 after 24 hrs; assay type: functional; conditions: Staphylococcus aureus, 4299, 24 h
[18] = system: Staphylococcus epidermidis; assay: Antibacterial activity against Staphylococcus epidermidis 12228 after 24 hrs; assay type: functional; conditions: Staphylococcus epidermidis, 12228, 24 h
[19] = system: Bacillus cereus; assay: Antibacterial activity against Bacillus cereus ATCC 11788 after 24 hrs; assay type: functional; conditions: ATCC 11788, 24 h
[20] = system: Bacillus subtilis (Bacillus subtilis); assay: Antibacterial activity against Bacillus subtilis ATCC 6633 after 24 hrs; conditions: ATCC 6633, 24 h

Row | SMILES | MIC [1] | MIC [2] | MIC [3] | MIC [4] | MIC [5] | MIC [6] | MIC [7] | MIC [8] | MIC [9] | MIC [10] | MIC [11] | MIC [12] | MIC [13] | MIC [14] | MIC [15] | MIC [16] | MIC [17] | MIC [18] | MIC [19] | MIC [20]
1 | CC[C@@H](C)[C@@H](NC(=O)[C@@H](CCC(N)=O)NC(=O)[C@H](CCCNC(=N)N)NC(=O)[C@@H](NC(=O)[C@@H](Cc1ccccc1)NC)[C@@H](C)CC)C(=O)N[C@H](C(=O)N[C@@H](CO)C(=O)N[C@H]1C(=O)N[C@@H](CCCNC(=N)N)C(=O)N[C@@H](CC(C)C)C(=O)N[C@@H]([C@@H](C)CC)C(=O)O[C@H]1C)[C@@H](C)CC (H-[dNMeF]IR[dQ][dI]IS[dT]RLI; ester 8-C) | 1 µg/mL (≈ 0.738 µM) | < 0.0625 µg/mL | < 0.0625 µg/mL | < 0.0625 µg/mL | < 0.0625 µg/mL | 0.5 µg/mL (≈ 0.369 µM) | 1 µg/mL (≈ 0.738 µM) | 0.5 µg/mL (≈ 0.369 µM) | 0.5 µg/mL (≈ 0.369 µM) | 1 µg/mL (≈ 0.738 µM) | 1 µg/mL (≈ 0.738 µM) | 1 µg/mL (≈ 0.738 µM) | 0.25 µg/mL (≈ 0.184 µM) | 1 µg/mL (≈ 0.738 µM) | 2 µg/mL (≈ 1.48 µM) | 1 µg/mL (≈ 0.738 µM) | 0.5 µg/mL (≈ 0.369 µM) | < 0.0625 µg/mL | 1 µg/mL (≈ 0.738 µM) | < 0.0625 µg/mL
2 | CC[C@@H](C)[C@@H](NC(=O)[C@@H](CCC(N)=O)NC(=O)[C@H](CCCNC(=N)N)NC(=O)[C@@H](NC(=O)[C@@H](Cc1ccccc1)NC)[C@@H](C)CC)C(=O)N[C@H](C(=O)N[C@@H](CO)C(=O)N[C@H]1C(=O)N[C@@H](C)C(=O)N[C@@H]([C@@H](C)CC)C(=O)N[C@@H]([C@@H](C)CC)C(=O)O[C@H]1C)[C@@H](C)CC | 0.25 µg/mL (≈ 0.197 µM) | < 0.0625 µg/mL | < 0.0625 µg/mL | < 0.0625 µg/mL | < 0.0625 µg/mL | 1 µg/mL (≈ 0.787 µM) | 1 µg/mL (≈ 0.787 µM) | 1 µg/mL (≈ 0.787 µM) | 1 µg/mL (≈ 0.787 µM) | 1 µg/mL (≈ 0.787 µM) | 1 µg/mL (≈ 0.787 µM) | 1 µg/mL (≈ 0.787 µM) | 0.125 µg/mL (≈ 0.0984 µM) | 0.25 µg/mL (≈ 0.197 µM) | 0.125 µg/mL (≈ 0.0984 µM) | 0.5 µg/mL (≈ 0.394 µM) | 0.125 µg/mL (≈ 0.0984 µM) | < 0.0625 µg/mL | 0.125 µg/mL (≈ 0.0984 µM) | < 0.0625 µg/mL
3 | CC[C@@H](C)[C@@H](NC(=O)[C@@H](CCC(N)=O)NC(=O)[C@H](CO)NC(=O)[C@@H](NC(=O)[C@@H](Cc1ccccc1)NC)[C@@H](C)CC)C(=O)N[C@H](C(=O)N[C@@H](CO)C(=O)N[C@H]1C(=O)N[C@@H](CCCNC(=N)N)C(=O)N[C@@H]([C@@H](C)CC)C(=O)N[C@@H]([C@@H](C)CC)C(=O)O[C@H]1C)[C@@H](C)CC | 0.25 µg/mL (≈ 0.194 µM) | < 0.0625 µg/mL | < 0.0625 µg/mL | < 0.0625 µg/mL | < 0.0625 µg/mL | 1 µg/mL (≈ 0.777 µM) | 1 µg/mL (≈ 0.777 µM) | 1 µg/mL (≈ 0.777 µM) | 1 µg/mL (≈ 0.777 µM) | 1 µg/mL (≈ 0.777 µM) | 1 µg/mL (≈ 0.777 µM) | 1 µg/mL (≈ 0.777 µM) | 0.125 µg/mL (≈ 0.0972 µM) | 0.5 µg/mL (≈ 0.389 µM) | 0.5 µg/mL (≈ 0.389 µM) | 1 µg/mL (≈ 0.777 µM) | 1 µg/mL (≈ 0.777 µM) | < 0.0625 µg/mL | 0.5 µg/mL (≈ 0.389 µM) | 0.125 µg/mL (≈ 0.0972 µM)
4 | CC[C@@H](C)[C@@H](NC(=O)[C@@H](CCCNC(=N)N)NC(=O)[C@H](CCCNC(=N)N)NC(=O)[C@@H](NC(=O)[C@@H](Cc1ccccc1)NC)[C@@H](C)CC)C(=O)N[C@H](C(=O)N[C@@H](CO)C(=O)N[C@H]1C(=O)N[C@@H](C)C(=O)N[C@@H](CC(C)C)C(=O)N[C@@H]([C@@H](C)CC)C(=O)O[C@H]1C)[C@@H](C)CC (H-[dNMeF]IR[dR][dI]IS[dT]ALI; ester 8-C) | 0.25 µg/mL (≈ 0.193 µM) | < 0.0625 µg/mL | < 0.0625 µg/mL | < 0.0625 µg/mL | < 0.0625 µg/mL | 1 µg/mL (≈ 0.77 µM) | 1 µg/mL (≈ 0.77 µM) | 0.5 µg/mL (≈ 0.385 µM) | 0.5 µg/mL (≈ 0.385 µM) | 2 µg/mL (≈ 1.54 µM) | 1 µg/mL (≈ 0.77 µM) | 0.5 µg/mL (≈ 0.385 µM) | 0.25 µg/mL (≈ 0.193 µM) | 0.5 µg/mL (≈ 0.385 µM) | 1 µg/mL (≈ 0.77 µM) | 0.25 µg/mL (≈ 0.193 µM) | 0.25 µg/mL (≈ 0.193 µM) | < 0.0625 µg/mL | 1 µg/mL (≈ 0.77 µM) | < 0.0625 µg/mL
5 | CC[C@@H](C)[C@@H](NC(=O)[C@@H](CCC(N)=O)NC(=O)[C@H](CCCNC(=N)N)NC(=O)[C@@H](NC(=O)[C@@H](Cc1ccccc1)NC)[C@@H](C)CC)C(=O)N[C@H](C(=O)N[C@@H](CO)C(=O)N[C@H]1C(=O)N[C@@H](C)C(=O)N[C@@H](CC(C)C)C(=O)N[C@@H]([C@@H](C)CC)C(=O)O[C@H]1C)[C@@H](C)CC (H-[dNMeF]IR[dQ][dI]IS[dT]ALI; ester 8-C) | 0.125 µg/mL (≈ 0.0984 µM) | < 0.0625 µg/mL | < 0.0625 µg/mL | < 0.0625 µg/mL | < 0.0625 µg/mL | 0.25 µg/mL (≈ 0.197 µM) | 0.5 µg/mL (≈ 0.394 µM) | < 0.0625 µg/mL | 0.125 µg/mL (≈ 0.0984 µM) | 0.5 µg/mL (≈ 0.394 µM) | 0.5 µg/mL (≈ 0.394 µM) | 0.5 µg/mL (≈ 0.394 µM) | < 0.0625 µg/mL | 0.0312 µg/mL (≈ 0.0246 µM) | < 0.0625 µg/mL | 0.25 µg/mL (≈ 0.197 µM) | 0.125 µg/mL (≈ 0.0984 µM) | < 0.0625 µg/mL | < 0.0625 µg/mL | < 0.0625 µg/mL
6 | CC[C@@H](C)[C@@H](NC(=O)[C@@H](CCCNC(=N)N)NC(=O)[C@H](CO)NC(=O)[C@@H](NC(=O)[C@@H](Cc1ccccc1)NC)[C@@H](C)CC)C(=O)N[C@H](C(=O)N[C@@H](CO)C(=O)N[C@H]1C(=O)N[C@@H](CCCNC(=N)N)C(=O)N[C@@H](CC(C)C)C(=O)N[C@@H]([C@@H](C)CC)C(=O)O[C@H]1C)[C@@H](C)CC (H-[dNMeF]IS[dR][dI]IS[dT]RLI; ester 8-C) | 1 µg/mL (≈ 0.761 µM) | < 0.0625 µg/mL | < 0.0625 µg/mL | < 0.0625 µg/mL | < 0.0625 µg/mL | 1 µg/mL (≈ 0.761 µM) | 1 µg/mL (≈ 0.761 µM) | 1 µg/mL (≈ 0.761 µM) | 1 µg/mL (≈ 0.761 µM) | 1 µg/mL (≈ 0.761 µM) | 1 µg/mL (≈ 0.761 µM) | 1 µg/mL (≈ 0.761 µM) | 1 µg/mL (≈ 0.761 µM) | 1 µg/mL (≈ 0.761 µM) | 0.5 µg/mL (≈ 0.38 µM) | 1 µg/mL (≈ 0.761 µM) | 0.5 µg/mL (≈ 0.38 µM) | < 0.0625 µg/mL | 1 µg/mL (≈ 0.761 µM) | < 0.0625 µg/mL
